Assay results reported in patent US20090227600A1, “4-(PYRAZINE-2-YL) -PYRROLIDINE -2-CARBOXYLIC ACID COMPOUNDS AND DERIVATIVES THEREOF AS HEPATITIS C VIRUS INHIBITORS” (priority 2004, published 2009).
pIC50: −log10 of the molar value.

System: Huh-7 HCV replicon cells (genotype 1a)
Assay: Replicon ELISA cell based assay, genotype 1a
Design: species or system HCV genotype 1a
Conditions: Hepatitis C virus, Huh-7 genotype 1a replicon, 72 hours
Method: 100 μL of medium containing 10% FCS were added to each well of clear, flat-bottomed 96 well microplates, excepting wells in the top row. Test compound was diluted in assay medium to twice the final required starting concentration from a 40 mM stock solution in DMSO. 200 μL of the starting dilution were introduced into two wells each in the top row and doubling dilutions made down the plate by the sequential transfer of 100 μL aliquots with thorough mixing in the wells; the final 100 μL were discarded. The two bottom rows were not used for compound dilutions. Huh-7 HCV replicon cell monolayers nearing confluency were stripped from growth flasks with versene-trypsin solution and the cells were resuspended in assay medium at either 2×10^5 cells/mL (sub-line 5-15; genotype 1b; Lohmann, V., Komer, F., Koch, J-O., Herian, U., Thielmann, L. And Bartenschlager, R., 1999, Science, 285, pp 110-113) or at 3×10^5 cells/mL (genotype 1a; Gu, B., Gates, A. T., Isken, O., Behrens, S. E. and Sarisky, R. T., J. Virol., 2003, 77, 5352-5359). 100 μL of cell suspension were added to all wells and the plates incubated at 37° C. for 72 hours in a 5% CO2 atmosphere.
Following incubation, the assay medium was aspirated from the plates. The cell sheets were washed by gentle immersion in phosphate buffered saline (PBS), which was then aspirated off, and fixed with acetone:methanol (1:1) for 5 minutes. Following a further wash with PBS, 100 μL of ELISA diluent (PBS+0.05% v/v Tween 20+2% w/v skimmed milk powder) were added to all wells and the plates incubated at 37° C. for 30 minutes on an orbital platform. The diluent was removed and each well then received 50 μL of a 1/200 dilution of anti-HCV specific, murine, monoclonal antibody (either Virostat #1872 or #1877), except for wells in one of the compound-free control rows which received diluent alone to act as negative controls. The plates were incubated at 37° C. for 2 hours and washed 3 times with PBS/0.05% Tween 20, then 50 μL of horseradish peroxidase conjugated, anti-mouse, rabbit polyclonal serum (Dako #P0260), diluted 1/1000, were added to all wells. The plates were incubated for a further hour, the antibody removed and the cell sheets washed 5 times with PBS/Tween and blotted dry. The assay was developed by the addition of 50 μL of ortho-phenylenediamine/peroxidase substrate in urea/citrate buffer (SigmaFast, Sigma #P-9187) to each well, and colour allowed to develop for up to 15 minutes. The reaction was stopped by the addition of 25 μL per well of 2 M sulphuric acid and the plates were read at 490 nm on a Fluostar Optima spectrophotometer.
The substrate solution was removed and the plates were washed in tap water, blotted dry and the cells stained with 5% carbol fuchsin in water for 30 minutes. The stain was discarded and the cell sheets washed, dried and examined microscopically to assess cytotoxicity.
The absorbance values from all compound-free wells that had received both primary and secondary antibodies were averaged to obtain a positive control value. The mean absorbance value from the compound-free wells that had not received the primary antibody was used to provide the negative (background) control value. The readings from the duplicate wells at each compound concentration were averaged and, after the subtraction of the mean background from all values, were expressed as a percentage of the positive control signal. The quantifiable and specific reduction of expressed protein detected by the ELISA in the presence of a drug can be used as a measure of replicon inhibition. GraFit software was used to plot the curve of percentage inhibition against compound concentration and derive the 50% inhibitory concentration (IC50) for the compound.

Row | Compound | pIC50
1 | COc1cc(C(=O)N2[C@@H](c3nccs3)[C@@H](c3cnccn3)C[C@@]2(CC(C)C)C(=O)O)ccc1C(C)(C)C (racemic) [Compound A, rel-(2S,4S,5R)-2-Isobutyl-1-(4-tert-butyl-3-methoxybenzoyl)-4-(pyrazin-2-yl)-5-(1,3-thiazol-2-yl)pyrrolidine-2-carboxylic acid, reference compound] | 4.00 to 5.00
2 | COc1cc(C(=O)N2[C@@H](c3ncc(C)s3)[C@@H](c3cnccn3)C[C@@]2(Cn2cccn2)C(=O)O)ccc1C(C)(C)C (racemic) [Example 9, rel-(2R,4S,5R)-1-(3-Methoxy-4-tert-butylbenzoyl)-5-(5-methyl-1,3-thiazol-2-yl)-4-(pyrazin-2-yl)-2-(1H-pyrazol-1-ylmethyl)pyrrolidine-2-carboxylic acid] | > 5.00
3 | COc1cc(C(=O)N2[C@@H](c3nccs3)[C@@H](c3cnccn3)C[C@@]2(Cc2ccsn2)C(=O)O)ccc1C(C)(C)C (racemic) [Example 7, rel-(2R,4S,5R)-1-(3-Methoxy-4-tert-butylbenzoyl)-4-(pyrazin-2-yl)-2-(1,2-thiazol-3-ylmethyl)-5-(1,3-thiazol-2-yl)pyrrolidine-2-carboxylic acid] | > 5.00
4 | COc1cc(C(=O)N2[C@@H](c3nccs3)[C@@H](c3cnccn3)C[C@@]2(Cn2cccn2)C(=O)O)ccc1C(C)(C)C (single isomer, unassigned; enantiomer a) [Example 12] | > 5.00
5 | COc1cc(C(=O)N2[C@@H](c3nccs3)[C@@H](c3cnccn3)C[C@@]2(Cc2ccccc2)C(=O)O)ccc1C(C)(C)C (racemic) [Compound G, rel-(2R,4S,5R)-1-(4-tert-Butyl-3-methoxybenzoyl)-2-(phenylmethyl)-4-(pyrazin-2-yl)-5-(1,3-thiazol-2-yl)pyrrolidine-2-carboxylic acid, reference compound] | 4.00 to 5.00
6 | COc1cc(C(=O)N2[C@@H](c3ncc(C)s3)[C@@H](c3cnccn3)C[C@@]2(Cc2nccs2)C(=O)O)ccc1C(C)(C)C (racemic) [Example 13, rel-(2R,4S,5R)-1-(3-Methoxy-4-tert-butylbenzoyl)-5-(5-methyl-1,3-thiazol-2-yl)-4-(pyrazin-2-yl)-2-(1,3-thiazol-2-ylmethyl)pyrrolidine-2-carboxylic acid] | > 5.00
7 | COc1cc(C(=O)N2[C@@H](c3ncc(C)s3)[C@@H](c3cnccn3)C[C@@]2(Cc2ccsn2)C(=O)O)ccc1C(C)(C)C (racemic) [Example 5, rel-(2R,4S,5R)-1-(3-Methoxy-4-tert-butylbenzoyl)-5-(5-methyl-1,3-thiazol-2-yl)-4-(pyrazin-2-yl)-2-(1,2-thiazol-3-ylmethyl)pyrrolidine-2-carboxylic acid] | > 5.00
8 | COc1cc(C(=O)N2[C@@H](c3ncc(C)s3)[C@@H](c3cnccn3)C[C@@]2(Cc2cscn2)C(=O)O)ccc1C(C)(C)C (racemic) [Example 15, rel-(2R,4S,5R)-1-(3-Methoxy-4-tert-butylbenzoyl)-5-(5-methyl-1,3-thiazol-2-yl)-4-(pyrazin-2-yl)-2-(1,3-thiazol-4-ylmethyl)pyrrolidine-2-carboxylic acid] | > 5.00
9 | COc1cc(C(=O)N2[C@@H](c3nccs3)[C@@H](c3cnccn3)C[C@@]2(Cc2ccccn2)C(=O)O)ccc1C(C)(C)C (racemic) [Compound C, rel-(2R,4S,5R)-1-(4-tert-Butyl-3-methoxybenzoyl)-2-(pyridin-2-ylmethyl)-4-(pyrazin-2-yl)-5-(1,3-thiazol-2-yl)pyrrolidine-2-carboxylic acid, reference compound] | 4.00 to 5.00
10 | COc1cc(C(=O)N2[C@@H](c3ncc(C)s3)[C@@H](c3cnccn3)C[C@@]2(Cc2nccs2)C(=O)O)ccc1C(C)(C)C (single isomer, unassigned; enantiomer a) [Example 14] | > 5.00
11 | COc1cc(C(=O)N2[C@@H](c3cncs3)[C@@H](c3cnccn3)C[C@@]2(CCSC)C(=O)O)ccc1C(C)(C)C (racemic) [Compound E, rel-(2R,4S,5R)-1-(4-tert-Butyl-3-methoxybenzoyl)-2-(2-(methylthio)ethyl)-4-(pyrazin-2-yl)-5-(1,3-thiazol-5-yl)-pyrrolidine-2-carboxylic acid, reference compound] | 4.00 to 5.00
12 | COc1cc(C(=O)N2[C@@H](c3ncc(C)s3)[C@@H](c3cnccn3)C[C@@]2(Cn2cccn2)C(=O)O)ccc1C(C)(C)C (single isomer, unassigned; enantiomer a) [Example 10] | > 5.00
13 | COc1cc(C(=O)N2[C@@H](c3ncc(C)s3)[C@@H](c3cnccn3)C[C@@]2(Cc2ccsn2)C(=O)O)ccc1C(C)(C)C (single isomer, unassigned; enantiomer a) [Example 6] | > 5.00
14 | COc1cc(C(=O)N2[C@@H](c3nccs3)[C@@H](c3cnccn3)C[C@@]2(Cc2cscn2)C(=O)O)ccc1C(C)(C)C (racemic) [Example 1, rel-(2R,4S,5R)-1-(3-Methoxy-4-tert-butylbenzoyl)-4-(pyrazin-2-yl)-2-(1,3-thiazol-4-ylmethyl)-5-(1,3-thiazol-2-yl)pyrrolidine-2-carboxylic acid] | > 5.00
15 | COc1cc(C(=O)N2[C@@H](c3nccs3)[C@@H](c3cnccn3)C[C@@]2(Cc2nccs2)C(=O)O)ccc1C(C)(C)C (single isomer, unassigned; enantiomer a) [Example 4] | > 5.00
16 | COc1cc(C(=O)N2[C@@H](c3nccs3)[C@@H](c3cnccn3)C[C@@]2(Cc2cscn2)C(=O)O)ccc1C(C)(C)C (single isomer, unassigned; enantiomer a) [Example 2] | > 5.00
17 | COc1cc(C(=O)N2[C@@H](c3nccs3)[C@@H](c3cnccn3)C[C@@]2(Cc2nccs2)C(=O)O)ccc1C(C)(C)C (racemic) [Example 3, rel-(2R,4S,5R)-1-(3-Methoxy-4-tert-butylbenzoyl)-4-(pyrazin-2-yl)-2-(1,3-thiazol-2-ylmethyl)-5-(1,3-thiazol-2-yl)pyrrolidine-2-carboxylic acid] | > 5.00
18 | COc1cc(C(=O)N2[C@@H](c3nccs3)[C@@H](c3cnccn3)C[C@@]2(CCS(C)(=O)=O)C(=O)O)ccc1C(C)(C)C (racemic) [Compound F, rel-(2R,4S,5R)-1-(4-tert-Butyl-3-methoxybenzoyl)-2-(2-(methylsulphonyl)ethyl)-4-pyrazin-2-yl-5-(1,3-thiazol-2-yl)-pyrrolidine-2-carboxylic acid, reference compound] | < 4.00
19 | COc1cc(C(=O)N2[C@@H](c3nccs3)[C@@H](c3cnccn3)C[C@@]2(CC(C)C)C(=O)O)ccc1C(C)(C)C (single isomer, unassigned; enantiomer a) [Compound B, reference compound] | 4.00 to 5.00
20 | COc1cc(C(=O)N2[C@@H](c3nccs3)[C@@H](c3cnccn3)C[C@@]2(Cn2cccn2)C(=O)O)ccc1C(C)(C)C (racemic) [Example 11, rel-(2R,4S,5R)-1-(3-Methoxy-4-tert-butylbenzoyl)-4-(pyrazin-2-yl)-2-(1H-pyrazol-1-ylmethyl)-5-(1,3-thiazol-2-yl)pyrrolidine-2-carboxylic acid] | > 5.00
21 | COc1cc(C(=O)N2[C@@H](c3ncc(C)s3)[C@@H](c3cnccn3)C[C@@]2(Cc2cscn2)C(=O)O)ccc1C(C)(C)C (single isomer, unassigned; enantiomer a) [Example 16] | > 5.00
22 | COc1cc(C(=O)N2[C@@H](c3nccs3)[C@@H](c3cnccn3)C[C@@]2(Cc2c[nH]cn2)C(=O)O)ccc1C(C)(C)C (racemic) [Compound D, rel-(2R,4S,5R)-1-(4-tert-Butyl-3-methoxybenzoyl)-2-(1H-imidazol-4-yl-methyl)-4-(pyrazin-2-yl)-5-(1,3-thiazol-2-yl)-pyrrolidine-2-carboxylic acid, reference compound] | < 4.00
23 | COc1cc(C(=O)N2[C@@H](c3nccs3)[C@@H](c3cnccn3)C[C@@]2(Cc2ccsn2)C(=O)O)ccc1C(C)(C)C (single isomer, unassigned; enantiomer a) [Example 8] | > 5.00
